Assay results: patent US10124004B2, “Pyrido[3,4-d]pyrimidine derivative and pharmaceutically acceptable salt thereof” (Teijin Pharma Limited, priority 2015, dated 2018)

Assays:
CDK4/cyclin D3 = biological target: T1, CDK4/cyclin D3 (Homo sapiens, UniProt P11802); test: Human CDK4/cyclin D3 inhibitory activity (QS S Assist CDK4/Cyclin D3_FP Kit, IMAP fluorescence polarization); assay type: biochemical; conditions: 50% inhibitory concentration against CDK4/cyclin D3, given as class symbol
T1 construct: purchased Carna Biosciences, Inc. QS S Assist CDK4/Cyclin D3_FP Kit
Procedure, shortened: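 IMAP fluorescence polarization kit: CDK4/cyclin D3 at 12.5-25 ng/well with kit ATP/substrate/metal mix in 20 mM HEPES pH 7.4, 0.01% Tween20, 2 mM DTT, 45 min at room temperature. FP read at 485/535 nm after 30 min binding; IC50 from dose-response fit of percent inhibition versus enzyme and no-enzyme controls.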

CDK2/cyclin A2 = biological target: T2, CDK2/cyclin A2 (Homo sapiens, UniProt P24941); test: Human CDK2/cyclin A2 inhibitory activity (QS S Assist CDK2/Cyclin A2_FP Kit, IMAP fluorescence polarization); assay type: biochemical; conditions: 50% inhibitory concentration against CDK2/cyclin A2, given as class symbol
T2 construct: purchased Carna Biosciences, Inc. QS S Assist CDK2/Cyclin A2_FP Kit
Procedure, shortened: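 Kinase activity read as fluorescence polarization (485/535 nm) after phosphorylated fluorescent substrate binds IMAP reagent (30 min, RT, dark). Enzyme (2.5 ng/well) reacted 60 min at RT with ATP/substrate/metal in HEPES pH 7.4 buffer with Tween 20 and DTT; no-enzyme wells define 0% activity; IC50 by curve fit.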

T1 sequence (P11802 whole entry): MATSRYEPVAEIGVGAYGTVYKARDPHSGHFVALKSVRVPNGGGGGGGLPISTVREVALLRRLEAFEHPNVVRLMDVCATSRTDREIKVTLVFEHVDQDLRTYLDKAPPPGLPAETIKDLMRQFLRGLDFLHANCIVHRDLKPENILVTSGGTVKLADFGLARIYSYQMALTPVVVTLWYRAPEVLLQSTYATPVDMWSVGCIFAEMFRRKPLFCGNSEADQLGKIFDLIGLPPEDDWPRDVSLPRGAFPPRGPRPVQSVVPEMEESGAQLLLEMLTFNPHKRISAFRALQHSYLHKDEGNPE
T1 sequence (P30281 whole entry partner): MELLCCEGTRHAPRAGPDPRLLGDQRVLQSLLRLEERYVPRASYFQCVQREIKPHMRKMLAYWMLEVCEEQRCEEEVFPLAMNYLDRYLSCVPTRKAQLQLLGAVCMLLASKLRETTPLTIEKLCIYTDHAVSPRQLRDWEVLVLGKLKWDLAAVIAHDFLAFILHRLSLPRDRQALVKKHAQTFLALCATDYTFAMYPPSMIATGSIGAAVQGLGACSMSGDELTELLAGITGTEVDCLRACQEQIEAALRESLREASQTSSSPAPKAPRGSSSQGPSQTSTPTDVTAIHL

IC50 (CDK4/cyclin D3) [nM] | IC50 (CDK2/cyclin A2) [nM] | Structure (SMILES)
< 10 | ≥ 100 | CCCNc1nc([C@@H](C)O)cc2cnc(Nc3ccc4c(n3)CCNC4)nc12 [Compound 944]
< 10 | ≥ 100 | CCCNc1nc(C2CCOC2)cc2cnc(Nc3ccc(N4CCNCC4)nn3)nc12 (stereo not shown) [Compound 946]
< 10 | ≥ 100 | CC(C)Nc1nc([C@@H](C)O)cc2cnc(Nc3ccc(Cn4cncn4)cn3)nc12 [Compound 949]
< 10 | ≥ 100 | CC(C)Nc1nc([C@@H](C)O)cc2cnc(Nc3ccc(CC4CCN(CCO)CC4)cn3)nc12 [Compound 951]
< 10 | ≥ 100 | C[C@@H](O)c1cc2cnc(Nc3ccc(CC4CCNCC4)cn3)nc2c(NCC2CCOCC2)n1 [Compound 952]
< 10 | ≥ 100 | CC(C)Nc1nc([C@@H](C)O)cc2cnc(Nc3ccc4c(n3)CCN(CCN3CCCC3=O)C4)nc12 [Compound 955]
< 10 | ≥ 100 | CO[C@H](C)c1cc2cnc(Nc3ccc(C4CCNCC4)cn3)nc2c(N[C@H]2CCCOC2)n1 [Compound 956]
< 10 | ≥ 100 | C[C@@H](O)c1cc2cnc(Nc3ccc(C4CCNCC4)cn3)nc2c(N[C@H]2CCCOC2)n1 [Compound 957]
< 10 | ≥ 100 | CC(C)Nc1nc([C@@H](C)O)cc2cnc(Nc3ccc(-c4cncn4C)cn3)nc12 [Compound 958]
< 10 | ≥ 100 | CC(C)Nc1nc([C@@H](C)O)cc2cnc(Nc3ccc(N4CCN(CC(=O)N(C)C)CC4=O)cn3)nc12 [Compound 962]
< 10 | ≥ 100 | CC(C)Nc1nc([C@@H](C)O)cc2cnc(Nc3ccc(N4CCN(CC(F)(F)F)CC4)nn3)nc12 [Compound 963]
< 10 | ≥ 100 | CC(C)Nc1nc([C@@H](C)O)cc2cnc(Nc3ccc(N4CCn5cncc5C4)nn3)nc12 [Compound 964]
10 to 100 | ≥ 100 | Cc1ncn(Cc2ccc(Nc3ncc4cc([C@@H](C)O)nc(NC(C)C)c4n3)nc2)c1C(=O)O [Compound 965]
< 10 | ≥ 100 | CC(C)Nc1nc([C@@H](C)O)cc2cnc(Nc3ccc(N4CCN(CC(=O)N5CCCC5)CC4)nn3)nc12 [Compound 966]
< 10 | ≥ 100 | CC(C)Nc1nc([C@@H](C)O)cc2cnc(Nc3ccc(N4CCN(CC(=O)N5CCOCC5)CC4)nn3)nc12 [Compound 967]
< 10 | ≥ 100 | CO[C@H](C)c1cc2cnc(Nc3ccc(CN4CCN(CC(N)=O)CC4)cn3)nc2c(NC(C)C)n1 [Compound 970]
< 10 | ≥ 100 | CNC(=O)CN1CCN(Cc2ccc(Nc3ncc4cc([C@@H](C)OC)nc(NC(C)C)c4n3)nc2)CC1 [Compound 971]
< 10 | ≥ 100 | CO[C@H](C)c1cc2cnc(Nc3ccc(CN4CCN(CC(=O)N(C)C)CC4)cn3)nc2c(NC(C)C)n1 [Compound 972]
10 to 100 | ≥ 100 | CCCNc1nc(C(C)=O)cc2cnc(Nc3ccc(CN4CCN(CCO)CC4)cn3)nc12 [Compound 974]
< 10 | ≥ 100 | CCNc1nc([C@@H](C)O)cc2cnc(Nc3ccc(CN4CCN(C[C@H](C)O)CC4)cn3)nc12 [Compound 976]
< 10 | ≥ 100 | CCNc1nc([C@@H](C)O)cc2cnc(Nc3ccc(CN4CCN(C[C@@H](C)O)CC4)cn3)nc12 [Compound 977]
< 10 | ≥ 100 | CO[C@H](C)c1cc2cnc(Nc3ccc(CN4CCNC[C@H]4C)cn3)nc2c(NC(C)C)n1 [Compound 978]
< 10 | ≥ 100 | CCNc1nc([C@@H](C)O)cc2cnc(Nc3ccc(CN4CCN(CCO)C[C@H]4C)cn3)nc12 [Compound 982]
< 10 | ≥ 100 | CCNc1nc([C@@H](C)O)cc2cnc(Nc3ccc(CN4CCN(CCO)C[C@@H]4C)cn3)nc12 [Compound 983]
< 10 | ≥ 100 | CC(C)Nc1nc([C@@H](C)O)cc2cnc(Nc3ccc(N4CCNC[C@H]4C)cn3)nc12 [Compound 985]
< 10 | ≥ 100 | CO[C@H](C)c1cc2cnc(Nc3ccc(CN4CCN(C(=O)CO)CC4)cn3)nc2c(NC(C)C)n1 [Compound 988]
< 10 | ≥ 100 | CC(C)Nc1nc([C@@H](C)O)cc2cnc(Nc3ccc(N4CCN(CC(=O)N(C)C)CC4)nn3)nc12 [Compound 991]
10 to 100 | ≥ 100 | CC(C)Nc1nc(C2CCCO2)cc2cnc(Nc3ccc(N4CCNCC4)cn3)nc12 (stereo not shown) [Compound 992]
< 10 | ≥ 100 | CC(C)Nc1nc(C2CCCO2)cc2cnc(Nc3ccc(N4CCNCC4)cn3)nc12 (stereo not shown) [Compound 993]
< 10 | ≥ 100 | C[C@@H](O)c1cc2cnc(Nc3ccc(N4CCNCC4)cn3)nc2c(N[C@H]2CCOC2)n1 [Compound 994]

Further lines, the molecule ahead of its results:

Structure (SMILES) | IC50 (CDK4/cyclin D3) [nM] | IC50 (CDK2/cyclin A2) [nM]
CC(C)Nc1nc([C@@H](C)O)cc2cnc(Nc3ccc(N4CCN(C(C)C#N)CC4=O)cn3)nc12 (stereo partly shown) [Compound 936] | < 10 | ≥ 100
CC(C)Nc1nc([C@@H](C)O)cc2cnc(Nc3ccc(N4CCN(CC(N)=O)CC4)nn3)nc12 [Compound 937] | < 10 | ≥ 100
CCCNc1nc(C2(C)COC2)cc2cnc(Nc3ccc(N4CCNCC4)nn3)nc12 [Compound 945] | < 10 | ≥ 100
CCCNc1nc(C2(C)COC2)cc2cnc(Nc3ccc4c(n3)CCNC4)nc12 [Compound 947] | < 10 | ≥ 100
CCCNc1nc(C2CCOC2)cc2cnc(Nc3ccc4c(n3)CCNC4)nc12 (stereo not shown) [Compound 948] | < 10 | ≥ 100
CC(C)Nc1nc([C@@H](C)O)cc2cnc(Nc3ccc(CC4CCNCC4)cn3)nc12 [Compound 950] | < 10 | ≥ 100
C[C@@H](O)c1cc2cnc(Nc3ccc(CC4CCN(CCO)CC4)cn3)nc2c(NCC2CCOCC2)n1 [Compound 953] | < 10 | ≥ 100
CCCNc1nc([C@@H](C)O)cc2cnc(Nc3ccc(-c4cncn4C)cn3)nc12 [Compound 959] | 10 to 100 | ≥ 100
CNC(=O)CN1CCN(c2ccc(Nc3ncc4cc([C@@H](C)O)nc(NC(C)C)c4n3)nn2)CC1 [Compound 960] | < 10 | ≥ 100
CNC(=O)CN1CCN(c2ccc(Nc3ncc4cc([C@@H](C)O)nc(NC(C)C)c4n3)nc2)C(=O)C1 [Compound 961] | < 10 | ≥ 100
CC(C)NC(=O)CN1CCN(c2ccc(Nc3ncc4cc([C@@H](C)O)nc(NC(C)C)c4n3)nn2)CC1 [Compound 968] | < 10 | ≥ 100
CO[C@H](C)c1cc2cnc(Nc3ccc(CN4CCN(CC#N)CC4)cn3)nc2c(NC(C)C)n1 [Compound 969] | 10 to 100 | ≥ 100
CC(=O)c1cc2cnc(Nc3ccc(CN4CCN(CCO)CC4)cn3)nc2c(NCC(C)C)n1 [Compound 973] | 10 to 100 | ≥ 100
CCCCNc1nc(C(C)=O)cc2cnc(Nc3ccc(CN4CCN(CCO)CC4)cn3)nc12 [Compound 975] | 10 to 100 | ≥ 100
CO[C@H](C)c1cc2cnc(Nc3ccc(CN4CCNC[C@@H]4C)cn3)nc2c(NC(C)C)n1 [Compound 979] | < 10 | ≥ 100
CCNc1nc([C@@H](C)O)cc2cnc(Nc3ccc(N4CCN(C)CC4)nn3)nc12 [Compound 980] | < 10 | ≥ 100
CC(C)Nc1nc([C@@H](C)O)c(F)c2cnc(Nc3ccc(N4CCNCC4=O)cn3)nc12 [Compound 981] | < 10 | 10 to 100
CCNc1nc([C@@H](C)O)c(Cl)c2cnc(Nc3ccc(CN4CCN(CCO)CC4)cn3)nc12 [Compound 984] | < 10 | ≥ 100
CC(C)Nc1nc([C@@H](C)O)cc2cnc(Nc3ccc(N4CCNC[C@@H]4C)cn3)nc12 [Compound 986] | < 10 | ≥ 100
CC(C)Nc1nc([C@@H](C)O)cc2cnc(Nc3ccc(CN4CCN(C(=O)CO)CC4)cn3)nc12 [Compound 987] | < 10 | ≥ 100
